Results published in patent US20040014047A1, “Antisense modulation of LIM domain kinase 1 expression” (Isis Pharmaceuticals Inc., priority 2002, published 2004).
Strand notation (5' to 3'): a small letter for the sugar, then the base; units joined by * are phosphorothioate-linked, units joined directly phosphodiester-linked; [ ] holds rarer units or linkages, { } end groups; capitals alone tell only the bases. e = 2'-O-(2-methoxyethyl) (MOE); [5mC] = 5-methylcytosine; d = 2'-deoxy (DNA)

Legend:
[1] = tested on: LIM domain kinase 1 mRNA; experiment: Antisense inhibition of LIM domain kinase 1 expression, dose response in A549 cells, real-time quantitative PCR; format: cell-based, human; conditions: for reduction of LIM domain kinase 1 mRNA levels (dose response): 6, 25, 100 and 400 nM; for Percent Inhibition of LIM Domain Kinase 1 mRNA Levels: averaged from two experiments, normalized to untreated control
Experimental: When cells reached 70% confluency, they were treated with oligonucleotide. […] Cells were harvested 16-24 hours after oligonucleotide treatment.
PCR reagents were obtained from Invitrogen Corporation, (Carlsbad, Calif.).
Probes and primers to human LIM domain kinase 1 were designed to hybridize to a human LIM domain kinase 1 sequence, using published sequence information (GenBank accession number D26309.1, incorporated herein as SEQ ID NO:4). For human LIM domain kinase 1 the PCR primers were: forward primer: […] (SEQ ID NO: 5) reverse primer: […] (SEQ ID NO: 6) and the PCR probe was: FAM-[…]-TAMRA (SEQ ID NO: 7) where FAM is the fluorescent dye and TAMRA is the quencher dye.
In accordance with the present invention, three of the oligonucleotides targeted to LIM domain kinase 1: ISIS 206212 ([…], SEQ ID NO: 67), ISIS 206219 ([…], SEQ ID NO: 74) and ISIS 206214 ([…], SEQ ID NO: 69) were investigated in a dose response experiment. The scrambled control oligonucleotides used in the dose response study were ISIS 129695 ([…], SEQ ID NO: 147), and ISIS 114845 ([…], SEQ ID NO: 148).
All cytidine residues are 5-methylcytidines.
In the dose-response experiment, with mRNA levels as the endpoint, A549 cells were treated with ISIS 206212, ISIS 206219, ISIS 206214 and control oligonucleotides at doses of 6, 25, 100 and 400 nM oligonucleotide. Data were obtained by real-time quantitative PCR as described in other examples herein and are averaged from two experiments with mRNA levels in the treatment groups, (including the scrambled control), being normalized to an untreated control group.

[2] = tested on: human LIM domain kinase 1 mRNA; experiment: Antisense inhibition of human LIM domain kinase 1 mRNA levels, quantitative real-time PCR, A549 cells (screen); format: cell-based; conditions: for inhibition of human LIM domain kinase 1 expression (text summary of Table 1): real-time PCR, bound stated; for % INHIB (inhibition of human LIM domain kinase 1 mRNA levels): quantitative real-time PCR, averages from two experiments, screening concentration not given (50 nM to 300 nM used herein)
In short: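 A549 cells at 70% confluency treated with antisense oligonucleotides (all cytidines 5-methylcytidine), harvested 16-24 h later. LIMK1 mRNA measured by real-time RT-PCR with FAM/TAMRA probe, normalized to total RNA by RiboGreen; values are averages of two experiments.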

Substance | inhibition of human LIM domain kinase 1 expression (text summary of Table 1) [2] | % INHIB (inhibition of human LIM domain kinase 1 mRNA levels) [2] [%] | further results
actccccatttggttcctgg (eA*e[5mC]*eT*e[5mC]*e[5mC]*d[5mC]*d[5mC]*dA*dT*dT*dT*dG*dG*dT*dT*e[5mC]*e[5mC]*eT*eG*eG; antisense) [ISIS 206212] | at least 65% | – | reduction of LIM domain kinase 1 mRNA levels (dose response) [1]: capable of reducing LIM domain kinase 1 mRNA levels in a dose-dependent manner
114845 (eT*eA*e[5mC]*eG*eT*d[5mC]*d[5mC]*dG*dG*dA*dG*dG*d[5mC]*dG*dT*eA*e[5mC]*eG*e[5mC]*e[5mC]) [compound 114845] | – | – | Percent Inhibition of LIM Domain Kinase 1 mRNA Levels ([1]; dose 6 nM): 0%; Percent Inhibition of LIM Domain Kinase 1 mRNA Levels ([1]; dose 25 nM): 0%; Percent Inhibition of LIM Domain Kinase 1 mRNA Levels ([1]; dose 100 nM): 0%; Percent Inhibition of LIM Domain Kinase 1 mRNA Levels ([1]; dose 400 nM): 24%
129695 (eT*eT*e[5mC]*eT*eA*d[5mC]*d[5mC]*dT*d[5mC]*dG*d[5mC]*dG*d[5mC]*dG*dA*eT*eT*eT*eA*e[5mC]) [compound 129695] | – | – | Percent Inhibition of LIM Domain Kinase 1 mRNA Levels ([1]; dose 6 nM): 2%; Percent Inhibition of LIM Domain Kinase 1 mRNA Levels ([1]; dose 25 nM): 0%; Percent Inhibition of LIM Domain Kinase 1 mRNA Levels ([1]; dose 100 nM): 12%; Percent Inhibition of LIM Domain Kinase 1 mRNA Levels ([1]; dose 400 nM): 62%
ccggccagggcaccgcagct (e[5mC]*e[5mC]*eG*eG*e[5mC]*d[5mC]*dA*dG*dG*dG*d[5mC]*dA*d[5mC]*d[5mC]*dG*e[5mC]*eA*eG*e[5mC]*eT; antisense) [ISIS 206214] | at least 65% | – | reduction of LIM domain kinase 1 mRNA levels (dose response) [1]: capable of reducing LIM domain kinase 1 mRNA levels in a dose-dependent manner
206219 (antisense eT*eG*e[5mC]*eA*e[5mC]*dT*dG*dA*dG*dA*dA*dA*dG*d[5mC]*dT*eT*e[5mC]*eA*e[5mC]*eA) [compound 206219] | – | 89 | Percent Inhibition of LIM Domain Kinase 1 mRNA Levels ([1]; dose 6 nM): 0%; Percent Inhibition of LIM Domain Kinase 1 mRNA Levels ([1]; dose 25 nM): 67%; Percent Inhibition of LIM Domain Kinase 1 mRNA Levels ([1]; dose 100 nM): 84%; Percent Inhibition of LIM Domain Kinase 1 mRNA Levels ([1]; dose 400 nM): 93%
206214 (antisense e[5mC]*e[5mC]*eG*eG*e[5mC]*d[5mC]*dA*dG*dG*dG*d[5mC]*dA*d[5mC]*d[5mC]*dG*e[5mC]*eA*eG*e[5mC]*eT) [compound 206214] | – | 87 | Percent Inhibition of LIM Domain Kinase 1 mRNA Levels ([1]; dose 6 nM): 0%; Percent Inhibition of LIM Domain Kinase 1 mRNA Levels ([1]; dose 25 nM): 46%; Percent Inhibition of LIM Domain Kinase 1 mRNA Levels ([1]; dose 100 nM): 84%; Percent Inhibition of LIM Domain Kinase 1 mRNA Levels ([1]; dose 400 nM): 98%
tgcactgagaaagcttcaca (eT*eG*e[5mC]*eA*e[5mC]*dT*dG*dA*dG*dA*dA*dA*dG*d[5mC]*dT*eT*e[5mC]*eA*e[5mC]*eA; antisense) [ISIS 206219] | at least 65% | – | reduction of LIM domain kinase 1 mRNA levels (dose response) [1]: capable of reducing LIM domain kinase 1 mRNA levels in a dose-dependent manner
206163 (eG*eT*e[5mC]*eA*eA*d[5mC]*d[5mC]*dT*d[5mC]*dA*dT*dG*d[5mC]*dA*d[5mC]*eT*e[5mC]*eG*eA*e[5mC]; antisense) [compound 206163] | – | 79 | –
206232 (antisense eA*eT*eG*e[5mC]*eT*dG*d[5mC]*dA*dG*d[5mC]*dT*d[5mC]*d[5mC]*dT*d[5mC]*e[5mC]*eT*eG*eG*eG) [compound 206232] | – | 81 | –
atacgttcttccctccaggt (eA*eT*eA*e[5mC]*eG*dT*dT*d[5mC]*dT*dT*d[5mC]*d[5mC]*d[5mC]*dT*d[5mC]*e[5mC]*eA*eG*eG*eT; antisense) [ISIS 206167] | at least 65% | – | –
ggtccttgcgctgggaggcc (eG*eG*eT*e[5mC]*e[5mC]*dT*dT*dG*d[5mC]*dG*d[5mC]*dT*dG*dG*dG*eA*eG*eG*e[5mC]*e[5mC]; antisense) [ISIS 206233] | at least 65% | – | –
206170 (eG*e[5mC]*eA*eA*e[5mC]*dT*d[5mC]*dG*d[5mC]*dT*dT*d[5mC]*d[5mC]*dT*dT*e[5mC]*e[5mC]*eT*e[5mC]*eT; antisense) [compound 206170] | – | 43 | –
206173 (eA*eG*eT*eA*eG*dT*d[5mC]*d[5mC]*dT*dT*d[5mC]*dT*dT*dG*d[5mC]*eA*eG*eA*eA*eG; antisense) [compound 206173] | – | 71 | –
206229 (antisense eG*eT*e[5mC]*eA*e[5mC]*dA*dA*d[5mC]*dA*d[5mC]*d[5mC]*dT*dG*d[5mC]*dA*eG*eG*eA*eG*eA) [compound 206229] | – | 66 | –
206223 (antisense eG*eG*eT*eG*eT*dG*dT*d[5mC]*dA*d[5mC]*d[5mC]*dT*dT*dG*dA*eT*eA*eG*e[5mC]*e[5mC]) [compound 206223] | – | 62 | –
atttccaagatccggtctcc (eA*eT*eT*eT*e[5mC]*d[5mC]*dA*dA*dG*dA*dT*d[5mC]*d[5mC]*dG*dG*eT*e[5mC]*eT*e[5mC]*e[5mC]; antisense) [ISIS 206184] | at least 65% | – | –
caggtgcaacaaagtagcgt (e[5mC]*eA*eG*eG*eT*dG*d[5mC]*dA*dA*d[5mC]*dA*dA*dA*dG*dT*eA*eG*e[5mC]*eG*eT; antisense) [ISIS 206164] | at least 65% | – | –
206230 (antisense e[5mC]*e[5mC]*eA*eG*eG*dT*dG*dA*dG*dT*dG*dT*dG*d[5mC]*dA*eA*eG*eG*e[5mC]*eA) [compound 206230] | – | 74 | –
206216 (antisense eT*e[5mC]*eA*e[5mC]*eA*dG*dT*dT*dT*dT*dA*dA*dT*dA*d[5mC]*eT*eT*e[5mC]*e[5mC]*eT) [compound 206216] | – | 0 | –
tcacggtgtgtcaccttgat (eT*e[5mC]*eA*e[5mC]*eG*dG*dT*dG*dT*dG*dT*d[5mC]*dA*d[5mC]*d[5mC]*eT*eT*eG*eA*eT; antisense) [ISIS 206195] | at least 65% | – | –
206205 (antisense eA*eA*eA*eG*eG*dA*dT*dG*dG*d[5mC]*d[5mC]*dT*d[5mC]*dT*dT*e[5mC]*eT*e[5mC]*eG*eG) [compound 206205] | – | 74 | –
agtacagcttggagtgctcc (eA*eG*eT*eA*e[5mC]*dA*dG*d[5mC]*dT*dT*dG*dG*dA*dG*dT*eG*e[5mC]*eT*e[5mC]*e[5mC]; antisense) [ISIS 206178] | at least 65% | – | –
actgcctctcgggttcaagc (eA*e[5mC]*eT*eG*e[5mC]*d[5mC]*dT*d[5mC]*dT*d[5mC]*dG*dG*dG*dT*dT*e[5mC]*eA*eA*eG*e[5mC]; antisense) [ISIS 206228] | at least 65% | – | –
206212 (antisense eA*e[5mC]*eT*e[5mC]*e[5mC]*d[5mC]*d[5mC]*dA*dT*dT*dT*dG*dG*dT*dT*e[5mC]*e[5mC]*eT*eG*eG) [compound 206212] | – | 91 | Percent Inhibition of LIM Domain Kinase 1 mRNA Levels ([1]; dose 6 nM): 0%; Percent Inhibition of LIM Domain Kinase 1 mRNA Levels ([1]; dose 25 nM): 73%; Percent Inhibition of LIM Domain Kinase 1 mRNA Levels ([1]; dose 100 nM): 91%; Percent Inhibition of LIM Domain Kinase 1 mRNA Levels ([1]; dose 400 nM): 97%
tccaggcatcgcatgacctt (eT*e[5mC]*e[5mC]*eA*eG*dG*d[5mC]*dA*dT*d[5mC]*dG*d[5mC]*dA*dT*dG*eA*e[5mC]*e[5mC]*eT*eT; antisense) [ISIS 206198] | at least 65% | – | –
gcagctgctgctgcagccgt (eG*e[5mC]*eA*eG*e[5mC]*dT*dG*d[5mC]*dT*dG*d[5mC]*dT*dG*d[5mC]*dA*eG*e[5mC]*e[5mC]*eG*eT; antisense) [ISIS 206215] | at least 65% | – | –
